From patent US20150197492A1, “NOVEL INDENO[1,2-c]QUINOLIN-11-ONE DERIVATIVES, PREPARATION METHOD AND APPLICATION THEREOF” (National Defense Medical Center, priority 2014, published 2015)

Legend:
Experiment in all cases: cells
Type in all cases: cell-based
[1] = system: CCRF-CEM
[2] = system: RPMI-8226
[3] = system: A549/ATCC
[4] = system: HOP-62
[5] = system: NCI-H226
[6] = system: NCI-H522
[7] = system: COLO 205
[8] = system: HCC-2998
[9] = system: SF-539
[10] = system: SNB-19
[11] = system: SNB-75
[12] = system: MALME-3M
[13] = system: MDA-MB-435
[14] = system: SK-MEL-2; details: Melanoma SK-MEL-2
[15] = system: SK-MEL-5
[16] = system: UACC-257
[17] = system: UACC-62
[18] = system: OVCAR-5
[19] = system: OVCAR-8
[20] = system: NCI/ADR-RES
[21] = system: 786-0
[22] = system: CAKI-1
[23] = system: RXF 393
[24] = system: UO-31
[25] = system: DU-145
[26] = system: MCF7
[27] = system: MDA-MB-231/ATCC
[28] = system: HS 578T
[29] = system: T-47D
[30] = system: MDA-MB-468
[31] = Homo sapiens, Non-Small Cell Lung Cancer A549/ATCC
[32] = Homo sapiens, Non-Small Cell Lung Cancer HOP-62
[33] = Homo sapiens, Colon Cancer COLO 205
[34] = Homo sapiens, CNS Cancer SF-539
[35] = Homo sapiens, CNS Cancer SNB-19
[36] = Homo sapiens, Melanoma MALME-3M
[37] = Homo sapiens, Breast Cancer MDA-MB-231/ATCC

Compound: O=C1c2cc(Cl)ccc2-c2c(N3CCNCC3)nc3ccccc3c21 [SJ-10, 9-Chloro-6-(piperazin-1-yl)-11H-indeno[1,2-c]quinolin-11-one]
- growth percentage ([1]; CCRF-CEM (Leukemia), 10 μM, 48 hours): -35.45%
- GI50 ([1]; Homo sapiens, Leukemia CCRF-CEM): 6.32 µM
- CC50 ([1]; Homo sapiens, Leukemia CCRF-CEM, read-out: LC50 (the source's name)): > 100 µM
- TGI ([1]; Leukemia CCRF-CEM): >100 µM
- GI50 ([2]; Homo sapiens, Leukemia RPMI-8226): 7.48 µM
- CC50 ([2]; Homo sapiens, Leukemia RPMI-8226, read-out: LC50 (the source's name)): > 100 µM
- TGI ([2]; Leukemia RPMI-8226): >100 µM
- growth percentage ([2]; RPMI-8226 (Leukemia), 10 μM, 48 hours): -43.57%
- growth percentage ([3]; A549/ATCC (Non-Small Cell Lung Cancer), 10 μM, 48 hours): 18.70%
- GI50 [3, 31]: 4.87 µM
- LC50 (50% lethal concentration) [3, 31]: > 100 µM
- TGI ([3]; Non-Small Cell Lung Cancer A549/ATCC): >100 µM
- growth percentage ([4]; HOP-62 (Non-Small Cell Lung Cancer), 10 μM, 48 hours): -61.80%
- GI50 [4, 32]: 12.3 µM
- LC50 (50% lethal concentration) [4, 32]: > 100 µM
- TGI ([4]; Non-Small Cell Lung Cancer HOP-62): >100 µM
- GI50 ([5]; Homo sapiens, Non-Small Cell Lung Cancer NCI-H226): 7.77 µM
- CC50 ([5]; Homo sapiens, Non-Small Cell Lung Cancer NCI-H226, read-out: LC50 (the source's name)): > 100 µM
- growth percentage ([5]; NCI-H226 (Non-Small Cell Lung Cancer), 10 μM, 48 hours): 49.94%
- TGI ([5]; Non-Small Cell Lung Cancer NCI-H226): >100 µM
- GI50 ([6]; Homo sapiens, Non-Small Cell Lung Cancer NCI-H522): 3.98 µM
- CC50 ([6]; Homo sapiens, Non-Small Cell Lung Cancer NCI-H522, read-out: LC50 (the source's name)): > 100 µM
- growth percentage ([6]; NCI-H522 (Non-Small Cell Lung Cancer), 10 μM, 48 hours): 18.08%
- TGI ([6]; Non-Small Cell Lung Cancer NCI-H522): >100 µM
- growth percentage ([7]; COLO 205 (Colon Cancer), 10 μM, 48 hours): -81.49%
- TGI ([7]; Colon Cancer COLO 205): >100 µM
- GI50 [7, 33]: 12.2 µM
- LC50 (50% lethal concentration) [7, 33]: > 100 µM
- TGI ([8]; Colon Cancer HCC-2998): >100 µM
- growth percentage ([8]; HCC-2998 (Colon Cancer), 10 μM, 48 hours): -55.83%
- GI50 ([8]; Homo sapiens, Colon Cancer HCC-2998): 30.9 µM
- CC50 ([8]; Homo sapiens, Colon Cancer HCC-2998, read-out: LC50 (the source's name)): > 100 µM
- TGI ([9]; CNS Cancer SF-539): >100 µM
- GI50 [9, 34]: 14.2 µM
- LC50 (concentration giving 50% net cell kill) [9, 34]: > 100 µM
- growth percentage ([9]; SF-539 (CNS Cancer), 10 μM, 48 hours): 36.91%
- TGI ([10]; CNS Cancer SNB-19): >100 µM
- GI50 [10, 35]: 8.27 µM
- LC50 [10, 35]: > 100 µM
- growth percentage ([10]; SNB-19 (CNS Cancer), 10 μM, 48 hours): 67.25%
- TGI ([11]; CNS Cancer SNB-75): >100 µM
- GI50 ([11]; Homo sapiens, CNS Cancer SNB-75): 4.53 µM
- CC50 ([11]; Homo sapiens, CNS Cancer SNB-75, read-out: LC50 (the source's name)): > 100 µM
- growth percentage ([11]; SNB-75 (CNS Cancer), 10 μM, 48 hours): 22.34%
- GI50 [12, 36]: 8.87 µM
- LC50 (concentration killing 50% of cells) [12, 36]: > 100 µM
- growth percentage ([12]; MALME-3M (Melanoma), 10 μM, 48 hours): -32.28%
- TGI ([12]; Melanoma MALME-3M): >100 µM
- GI50 ([13]; Homo sapiens, Melanoma MDA-MB-435): 7.01 µM
- CC50 ([13]; Homo sapiens, Melanoma MDA-MB-435, read-out: LC50 (the source's name)): > 100 µM
- growth percentage ([13]; MDA-MB-435 (Melanoma), 10 μM, 48 hours): -6.57%
- TGI ([13]; Melanoma MDA-MB-435): >100 µM
- GI50 ([14]; Homo sapiens): 7.36 µM
- CC50 ([14]; Homo sapiens, read-out: LC50 (the source's name)): > 100 µM
- TGI [14]: >100 µM
- GI50 ([15]; Homo sapiens, Melanoma SK-MEL-5): 4.1 µM
- CC50 ([15]; Homo sapiens, Melanoma SK-MEL-5, read-out: LC50 (the source's name)): > 100 µM
- TGI ([15]; Melanoma SK-MEL-5): >100 µM
- growth percentage ([15]; SK-MEL-5 (Melanoma), 10 μM, 48 hours): 59.18%
- GI50 ([16]; Homo sapiens, Melanoma UACC-257): 35.1 µM
- CC50 ([16]; Homo sapiens, Melanoma UACC-257, read-out: LC50 (the source's name)): > 100 µM
- TGI ([16]; Melanoma UACC-257): >100 µM
- growth percentage ([16]; UACC-257 (Melanoma), 10 μM, 48 hours): -39.24%
- GI50 ([17]; Homo sapiens, Melanoma UACC-62): 4.38 µM
- CC50 ([17]; Homo sapiens, Melanoma UACC-62, read-out: LC50 (the source's name)): > 100 µM
- TGI ([17]; Melanoma UACC-62): >100 µM
- growth percentage ([17]; UACC-62 (Melanoma), 10 μM, 48 hours): -81.71%
- GI50 ([18]; Homo sapiens, Ovarian Cancer OVCAR-5): 34.5 µM
- CC50 ([18]; Homo sapiens, Ovarian Cancer OVCAR-5, read-out: LC50 (the source's name)): > 100 µM
- growth percentage ([18]; OVCAR-5 (Ovarian Cancer), 10 μM, 48 hours): 39.14%
- TGI ([18]; Ovarian Cancer OVCAR-5): >100 µM
- GI50 ([19]; Homo sapiens, Ovarian Cancer OVCAR-8): 8.66 µM
- CC50 ([19]; Homo sapiens, Ovarian Cancer OVCAR-8, read-out: LC50 (the source's name)): > 100 µM
- growth percentage ([19]; OVCAR-8 (Ovarian Cancer), 10 μM, 48 hours): -46.09%
- TGI ([19]; Ovarian Cancer OVCAR-8): >100 µM
- GI50 ([20]; Homo sapiens, Ovarian Cancer NCI/ADR-RES): 22.5 µM
- CC50 ([20]; Homo sapiens, Ovarian Cancer NCI/ADR-RES, read-out: LC50 (the source's name)): > 100 µM
- growth percentage ([20]; NCI/ADR-RES (Ovarian Cancer), 10 μM, 48 hours): -4.00%
- TGI ([20]; Ovarian Cancer NCI/ADR-RES): >100 µM
- growth percentage ([21]; 786-0 (Renal Cancer), 10 μM, 48 hours): 25.31%
- GI50 ([21]; Homo sapiens, 786-0, Renal Cancer 786-O): 23.5 µM
- CC50 ([21]; Homo sapiens, 786-0, Renal Cancer 786-O, read-out: LC50 (the source's name)): > 100 µM
- TGI ([21]; Renal Cancer 786-O): >100 µM
- growth percentage ([22]; CAKI-1 (Renal Cancer), 10 μM, 48 hours): 17.84%
- GI50 ([22]; Homo sapiens, Renal Cancer CAKI-1): 2.52 µM
- CC50 ([22]; Homo sapiens, Renal Cancer CAKI-1, read-out: LC50 (the source's name)): > 100 µM
- TGI ([22]; Renal Cancer CAKI-1): >100 µM
- GI50 ([23]; Homo sapiens, Renal Cancer RXF 393): 4.55 µM
- CC50 ([23]; Homo sapiens, Renal Cancer RXF 393, read-out: LC50 (the source's name)): > 100 µM
- growth percentage ([23]; RXF 393 (Renal Cancer), 10 μM, 48 hours): 20.51%
- TGI ([23]; Renal Cancer RXF 393): >100 µM
- GI50 ([24]; Homo sapiens, Renal Cancer UO-31): 2.83 µM
- CC50 ([24]; Homo sapiens, Renal Cancer UO-31, read-out: LC50 (the source's name)): > 100 µM
- TGI ([24]; Renal Cancer UO-31): >100 µM
- growth percentage ([24]; UO-31 (Renal Cancer), 10 μM, 48 hours): -40.61%
- growth percentage ([25]; DU-145 (Prostate Cancer), 10 μM, 48 hours): -41.83%
- GI50 ([25]; Homo sapiens, Prostate Cancer DU-145): 4.79 µM
- CC50 ([25]; Homo sapiens, Prostate Cancer DU-145, read-out: LC50 (the source's name)): > 100 µM
- TGI ([25]; Prostate Cancer DU-145): >100 µM
- TGI ([26]; Breast Cancer MCF7): >100 µM
- GI50 ([26]; Homo sapiens, Breast Cancer MCF7): 5.42 µM
- CC50 ([26]; Homo sapiens, Breast Cancer MCF7, read-out: LC50 (the source's name)): > 100 µM
- growth percentage ([26]; MCF7 (Breast Cancer), 10 μM, 48 hours): -100.00%
- TGI ([27]; Breast Cancer MDA-MB-231/ATCC): >100 µM
- GI50 [27, 37]: 7.23 µM
- LC50 (concentration giving 50% net cell kill) [27, 37]: > 100 µM
- growth percentage ([27]; MDA-MB-231/ATCC (Breast Cancer), 10 μM, 48 hours): -10.45%
- TGI ([28]; Breast Cancer HS 578T): >100 µM
- growth percentage ([28]; HS 578T (Breast Cancer), 10 μM, 48 hours): 60.88%
- GI50 ([28]; Homo sapiens, Breast Cancer HS 578T): 4.77 µM
- CC50 ([28]; Homo sapiens, Breast Cancer HS 578T, read-out: LC50 (the source's name)): > 100 µM
- TGI ([29]; Breast Cancer T-47D): >100 µM
- GI50 ([29]; Homo sapiens, T47D, Breast Cancer T-47D): 8.44 µM
- CC50 ([29]; Homo sapiens, T47D, Breast Cancer T-47D, read-out: LC50 (the source's name)): > 100 µM
- growth percentage ([29]; T-47D (Breast Cancer), 10 μM, 48 hours): -31.54%
- TGI ([30]; Breast Cancer MDA-MB-468): >100 µM
- GI50 ([30]; Homo sapiens, Breast Cancer MDA-MB-468): 4.42 µM
- CC50 ([30]; Homo sapiens, Breast Cancer MDA-MB-468, read-out: LC50 (the source's name)): > 100 µM
- growth percentage ([30]; MDA-MB-468 (Breast Cancer), 10 μM, 48 hours): -35.66%
